pIC50: −log10 of the molar value.
How the values were obtained:
[1] = target: T1, SIK2 (Homo sapiens, UniProt Q9H0K1); assay: SIK2 Enzymatic Assay High Version 2 (High ATP); type: biochemical
How it was run: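 At room temperature, enzyme (6 nM, 2× final) was preincubated with compound for 30 min, then 6 mM ATP and 400 μM HDAC5tide (both 2× final) were added for 2 h. ADP formed was measured by ADP-Glo Max (2 h reagent, 1 h detection) using luminescence.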

[2] = target: T1, SIK2; assay: SIK2 Enzymatic Assay Version 1 (ADP Glo); type: biochemical; conditions: enzyme 0.6 nM, 160 μM ATP and 140 μM HDAC5tide (each 2× final concentration); 30 minutes pre-incubation, 4 hours; ADPGlo luminescence; read-out: SIK2 ADP Glo IC50 (μM) (Test Example 1)
How it was run: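 Room-temperature ADP-Glo luminescence assay; SIK2 added at 0.6 nM (2× final) and preincubated with compound for 30 min. Reaction stopped with ADP-Glo Reagent for 40 min, then detection reagent for at least 30 min; no-peptide (ATP-only) wells served as negative control.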

T1 sequence (Q9H0K1 whole entry, species assumed): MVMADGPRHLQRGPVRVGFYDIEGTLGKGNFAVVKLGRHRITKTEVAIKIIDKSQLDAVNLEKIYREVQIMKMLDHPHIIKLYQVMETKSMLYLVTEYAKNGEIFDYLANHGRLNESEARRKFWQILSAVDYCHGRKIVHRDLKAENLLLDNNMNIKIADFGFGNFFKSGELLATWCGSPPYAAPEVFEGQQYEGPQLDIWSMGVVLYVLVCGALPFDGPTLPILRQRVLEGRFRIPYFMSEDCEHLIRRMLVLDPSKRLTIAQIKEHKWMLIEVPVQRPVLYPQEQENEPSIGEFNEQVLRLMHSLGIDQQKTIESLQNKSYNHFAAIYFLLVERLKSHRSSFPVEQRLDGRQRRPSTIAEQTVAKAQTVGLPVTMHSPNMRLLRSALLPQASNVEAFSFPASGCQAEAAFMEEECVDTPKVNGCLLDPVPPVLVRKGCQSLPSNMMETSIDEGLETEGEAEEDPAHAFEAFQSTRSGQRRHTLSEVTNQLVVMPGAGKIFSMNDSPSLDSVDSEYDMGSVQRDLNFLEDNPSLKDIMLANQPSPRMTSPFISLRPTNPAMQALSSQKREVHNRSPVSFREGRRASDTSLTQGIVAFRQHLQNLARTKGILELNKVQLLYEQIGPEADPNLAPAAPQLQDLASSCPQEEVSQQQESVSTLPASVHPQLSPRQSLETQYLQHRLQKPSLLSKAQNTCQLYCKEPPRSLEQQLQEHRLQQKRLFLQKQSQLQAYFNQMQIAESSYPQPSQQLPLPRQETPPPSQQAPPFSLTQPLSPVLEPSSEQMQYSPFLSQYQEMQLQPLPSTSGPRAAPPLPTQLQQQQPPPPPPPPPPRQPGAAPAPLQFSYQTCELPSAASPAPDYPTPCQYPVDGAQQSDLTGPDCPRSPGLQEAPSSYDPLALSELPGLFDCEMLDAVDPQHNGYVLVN

| SMILES | pIC50 [1] | IC50 [2] [µM] |
| --- | --- | --- |
| CN1CC[C@@H](Oc2cnc(C#N)cc2-c2ccn3nc(NC(=O)C4CC4)cc3c2)C[C@H]1C(F)(F)F (single isomer, unassigned) [Example 29, N-(5-(2-cyano-5-(((2*S,4*R)-1-methyl-2-(trifluoromethyl)piperidin-4-yl)oxy)pyridin-4-yl)pyrazolo[1,5-a]pyridin-2-yl)cyclopropanecarboxamide] | 6.84 | 0.00575 |
| N#Cc1cc(-c2ccn3nc(NC(=O)C4CC4)cc3c2)c(OC[C@@H]2CCN(C3CC3)C2)cn1 [Example 589, N-[5-[2-cyano-5-[[(3R)-1-cyclopropylpyrrolidin-3-yl]methoxy]-4-pyridyl]pyrazolo[1,5-a]pyridin-2-yl]cyclopropanecarboxamide] | 7.12 | 0.00625 |
| CN[C@H]1C[C@@H](COc2cnc(C#N)cc2-c2ccn3nc(NC(=O)C4CC4)cc3c2)C1 [Example 98, N-(5-(2-cyano-5-(((1s,3s)-3-(methylamino)cyclobutyl)methoxy)pyridin-4-yl)pyrazolo[1,5-a]pyridin-2-yl)cyclopropanecarboxamide] | 7.86 | 0.000779 |
| N#Cc1cc(-c2ccn3nc(NC(=O)C4CC4)cc3c2)c(OCC(O)(C(F)(F)F)C(F)(F)F)cn1 [Example 99, N-[5-[2-cyano-5-[3,3,3-trifluoro-2-hydroxy-2-(trifluoromethyl)propoxy]-4-pyridyl]pyrazolo[1,5-a]pyridin-2-yl]cyclopropanecarboxamide] | 7.42 | 0.00295 |
| N#Cc1cc(-c2ccn3nc(NC(=O)C4CC4)cc3c2)c(OCC23CCC(CC2)C(=O)N3)cn1 [Example 40, N-[5-[2-cyano-5-[(2-oxo-3-azabicyclo[2.2.2]octan-4-yl)methoxy]-4-pyridyl]pyrazolo[1,5-a]pyridin-2-yl]cyclopropanecarboxamide] | 7.06 | 0.0047 |
| CN1C[C@@H]2C[C@H]1C[C@H]2Oc1cnc(C#N)cc1-c1ccn2nc(NC(=O)C3CC3)cc2c1 (single isomer, unassigned) [Example 595, (1*S, 4*S, 5*R)—N-[5-[2-cyano-5-[(2-methyl-2-azabicyclo[2.2.1]heptan-5-yl)oxy]-4-pyridyl]pyrazolo[1,5-a]pyridin-2-yl]cyclopropanecarboxamide] | 7.75 | 0.000791 |
| CN1CC[C@@H](COc2cnc(C#N)cc2-c2ccn3nc(Nc4ccccc4)cc3c2)C1 [Example 106, 4-(2-anilinopyrazolo[1,5-a]pyridin-5-yl)-5-[[(3R)-1-methylpyrrolidin-3-yl]methoxy]pyridine-2-carbonitrile] | 7.31 | 0.00338 |
| Cc1cc(-c2ccn3nc(NC(=O)C4CC4)cc3c2)c(OCC2(F)CN(C)C2)cn1 [Example 169, N-[5-[5-[(3-fluoro-1-methyl-azetidin-3-yl)methoxy]-2-methyl-4-pyridyl]pyrazolo[1,5-a]pyridin-2-yl]cyclopropanecarboxamide] | 7.29 | 0.00307 |
| CC(C)(C#N)COc1cnc(OC(F)F)cc1-c1ccn2nc(Nc3ccn4ncnc4c3)cc2c1 [Example 475, 3-[[6-(difluoromethoxy)-4-[2-([1,2,4]triazolo[1,5-a]pyridin-7-ylamino)pyrazolo[1,5-a]pyridin-5-yl]-3-pyridyl]oxy]-2,2-dimethyl-propanenitrile] | 7.57 | 0.00205 |
| Cc1cc(-c2ccn3nc(NC(=O)C4CC4)cc3c2)c(O[C@H]2C[C@H](N)C2)cn1 [Example 170, trans-N-[5-[5-(3-aminocyclobutoxy)-2-methyl-4-pyridyl]pyrazolo[1,5-a]pyridin-2-yl]cyclopropanecarboxamide] | 7.89 | 0.000853 |
| C[C@]1(O)CC[C@@H](Oc2cnc(C#N)cc2-c2ccn3nc(NC(=O)C4CC4)cc3c2)CC1 [Example 89] | 8.52 | 0.000299 |
| Cc1cc(-c2ccn3nc(Nc4ccccn4)cc3c2)c(OC2CN(C)C2)cn1 [Example 567, 5-[2-methyl-5-(1-methylazetidin-3-yl)oxy-4-pyridyl]-N-(2-pyridyl)pyrazolo[1,5-a]pyridin-2-amine] | 6.60 | 0.00757 |
| CN1CC[C@@H](COc2cnc(C#N)cc2-c2ccn3nc(NC(=O)C4CC4)cc3c2)C1 [Example 1, N-[5-[2-Cyano-5-[[(3R)-1-methylpyrrolidin-3-yl]methoxy]-4-pyridyl]pyrazolo[1,5-a]pyridin-2-yl]cyclopropanecarboxamide] | 7.23 | 0.00226 |
| CC#Cc1cc(-c2ccn3nc(NC(=O)C4CC4)cc3c2)c(OC[C@@H]2CCN(C)C2)cn1 [Example 441, N-[5-[5-[[(3R)-1-methylpyrrolidin-3-yl]methoxy]-2-prop-1-ynyl-4-pyridyl]pyrazolo[1,5-a]pyridin-2-yl]cyclopropanecarboxamide] | 7.92 | 0.00106 |
| CN1CC[C@H](COc2cnc(C#N)cc2-c2ccn3nc(NC(=O)C4CC4)cc3c2)C1 [Example 16, (S)—N-(5-(2-cyano-5-((1-methylpyrrolidin-3-yl)methoxy)pyridin-4-yl)pyrazolo[1,5-a]pyridin-2-yl)cyclopropanecarboxamide] | 6.63 | 0.00496 |
| N#Cc1cc(-c2ccn3nc(NC(=O)C4CC4)cc3c2)c(O[C@@H]2CCNCC2(F)F)cn1 [Example 15, N-[5-[2-cyano-5-[[(4R)-3,3-difluoro-4-piperidyl]oxy]-4-pyridyl]pyrazolo[1,5-a]pyridin-2-yl]cyclopropanecarboxamide] | 7.40 | 0.0027 |
| CCOc1cnc(C)cc1-c1ccn2nc(NC(=O)C3CC3)cc2c1 [Example 752, N-[5-(5-ethoxy-2-methyl-4-pyridyl)pyrazolo[1,5-a]pyridin-2-yl]cyclopropanecarboxamide] | 6.09 | 0.061 |
| N#Cc1cc(-c2ccn3nc(NC(=O)C4CC4)cc3c2)c(OC[C@H]2C[C@@H](Nc3ccccn3)C2)cn1 [Example 176, cis-N-[5-[2-cyano-5-[[3-(2-pyridylamino)cyclobutyl]methoxy]-4-pyridyl]pyrazolo[1,5-a]pyridin-2-yl]cyclopropanecarboxamide] | 7.26 | 0.00196 |
| N#Cc1cc(-c2ccn3nc(NC(=O)C4CC4)cc3c2)c(OCC2CCC(O)(C(F)(F)F)CC2)cn1 (racemic) [Example 178, rac-N-[5-[2-cyano-5-[[4-hydroxy-4-(trifluoromethyl)cyclohexyl]methoxy]-4-pyridyl]pyrazolo[1,5-a]pyridin-2-yl]cyclopropanecarboxamide] | 7.89 | 0.000605 |
| C[C@H](O)COc1cnc(C#N)cc1-c1ccn2nc(NC(=O)C3CC3)cc2c1 [Example 63, N-[5-[2-cyano-5-[(2S)-2-hydroxypropoxy]-4-pyridyl]pyrazolo[1,5-a]pyridin-2-yl]cyclopropanecarboxamide] | 7.10 | 0.00426 |
| CN1CCC(Oc2cnc(C#N)cc2-c2ccn3nc(NC(=O)C4CC4)cc3c2)(C(F)(F)F)CC1 [Example 10, N-[5-[2-cyano-5-[[1-methyl-4-(trifluoromethyl)-4-piperidyl]oxy]-4-pyridyl]pyrazolo[1,5-a]pyridin-2-yl]cyclopropanecarboxamide] | 5.31 | 0.204 |
| N#Cc1cc(-c2ccn3nc(NC(=O)C4CC4)cc3c2)c(OC[C@H]2CNCCO2)cn1 [Example 592, N-[5-[2-cyano-5-[[(2R)-morpholin-2-yl]methoxy]-4-pyridyl]pyrazolo[1,5-a]pyridin-2-yl]cyclopropanecarboxamide] | 6.92 | 0.00486 |
| N#Cc1ccc(OC[C@@H]2CCNC2)c(-c2ccn3nc(NC(=O)C4CC4)cc3c2)c1 [Example 476, N-[5-[5-cyano-2-[[(3R)-pyrrolidin-3-yl]methoxy]phenyl]pyrazolo[1,5-a]pyridin-2-yl]cyclopropanecarboxamide] | 7.26 | 0.00386 |
| Cc1cc(-c2ccn3nc(NC(=O)C4CC4)cc3c2)c(OC[C@@H]2CNCCO2)cn1 [Example 143, N-[5-[2-methyl-5-[[(2S)-morpholin-2-yl]methoxy]-4-pyridyl]pyrazolo[1,5-a]pyridin-2-yl]cyclopropanecarboxamide] | 7.90 | 0.000664 |
| N#Cc1ccc(OC[C@H]2CNCCO2)c(-c2ccn3nc(NC(=O)C4CC4)cc3c2)c1 [Example 101, N-[5-[5-cyano-2-[[(2R)-morpholin-2-yl]methoxy]phenyl]pyrazolo[1,5-a]pyridin-2-yl]cyclopropanecarboxamide] | 7.66 | 0.00263 |
| Cc1cc(-c2ccn3nc(Nc4ccccn4)cc3c2)c(O[C@H]2CC[C@H](O)CC2)cn1 [Example 182, trans-4-[[6-methyl-4-[2-(2-pyridylamino)pyrazolo[1,5-a]pyridin-5-yl]-3-pyridyl]oxy]cyclohexanol] | 7.47 | 0.00176 |

From patent publication US20240158392A1 (Janssen Biotech, Inc., priority 2021, published 2024)
